± gives the standard deviation of the averaged measurements.
Experiments:
Assay in all cases: relative viability vs DMSO control (72 h) (fraction); higher = more viable cells
RD = test system: RD
Method in brief: (§1)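 Sarcoma cell lines in 384-well plates, seeded to reach 80–90% confluence, were given compound after 24 h and kept 72 h at 37 °C, 5% CO2, with 0.1% DMSO vehicle and a 5 µM positive control. Relative viability came from ATPLite as percent growth, averaged over up to triplicate wells. On the rescaled values, 1 equals full and 0 equals none.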

VA-ES-BJ = test system: VA-ES-BJ
Method in brief: as §1

SYO-1 = test system: SYO-1
Method in brief: as §1

HS729 = test system: HS729
Method in brief: as §1

SK-LMS-1 = test system: SK-LMS-1
Method in brief: as §1

G401 = test system: G401
Method in brief: as §1

CO[C@@H]1[C@H](N(C)C(=O)c2ccccc2)C[C@H]2O[C@]1(C)n1c3ccccc3c3c4c(c5c6ccccc6n2c5c31)C(=O)NC4 [Midostaurin]
relative viability
Details	G401	HS729	RD	SK-LMS-1	SYO-1	VA-ES-BJ
0.00017 µM	0.948 ± 0.029	0.927 ± 0.054	1.06 ± 0.12	0.981 ± 0.015	0.955 ± 0.04	0.978 ± 0.051
0.00051 µM	0.976 ± 0.047	0.913 ± 0.025	1.06 ± 0.1	0.972 ± 0.013	0.946 ± 0.029	0.943 ± 0.042
0.00152 µM	0.98 ± 0.029	0.914 ± 0.048	1.07 ± 0.052	0.987 ± 0.092	0.941 ± 0.032	0.974 ± 0.048
0.00457 µM	0.969 ± 0.029	0.921 ± 0.055	1.09 ± 0.032	1.02 ± 0.067	0.92 ± 0.035	0.978 ± 0.0096
0.01372 µM	0.953 ± 0.021	0.874 ± 0.062	1.09 ± 0.03	1.02 ± 0.042	0.833 ± 0.025	0.958 ± 0.018
0.04115 µM	0.878 ± 0.057	0.828 ± 0.04	1.05 ± 0.027	0.946 ± 0.07	0.755 ± 0.035	0.945 ± 0.025
0.1235 µM	0.854 ± 0.012	0.791 ± 0.046	0.989 ± 0.011	0.793 ± 0.042	0.676 ± 0.04	0.917 ± 0.023
0.3704 µM	0.678 ± 0.051	0.684 ± 0.042	0.731 ± 0.022	0.564 ± 0.031	0.294 ± 0.019	0.668 ± 0.038
1.111 µM	0.436 ± 0.0084	0.368 ± 0.013	0.46 ± 0.012	0.392 ± 0.011	0.0535 ± 0.0037	0.372 ± 0.019
3.333 µM	0.229 ± 0.0045	0.269 ± 0.0054	0.415 ± 0.01	0.36 ± 0.013	0.0115 ± 0.0021	0.269 ± 0.014
10 µM	0.159 ± 0.0084	0.273 ± 0.0051	0.42 ± 0.011	0.364 ± 0.011	0.00107 ± 0.0037	0.181 ± 0.015

Source: the supplement of paper PMC10883282
